The text below walks through data of ChEMBL document CHEMBL4619734, “Molecule Property Analyses of Active Compounds for Mycobacterium tuberculosis” (J Med Chem, 2020).

Structures are written as SMILES. Converted amounts (≈) assume the structure as drawn.

The test system of test [1] is Mycobacterium tuberculosis. The experiment in a line: Antimycobacterial activity against Mycobacterium tuberculosis. The format is functional.
For test [2], the system named is Mycobacterium tuberculosis. The experiment in a line: Antimycobacterial activity against Mycobacterium tuberculosis H37Rv. The format is functional.
Test [3] has as its system Mycobacterium tuberculosis. In words: Antimycobacterial activity against Mycobacterium tuberculosis H37Rv ATCC 27294 assessed as reduction in mycolic acids synthesis after 8 hrs in presence of [1, 2-14C]-acetate by TLC analysis. The format is functional. The following applies: H37Rv ATCC 27294, 8 h.
The target in the next test is T1, Leucine--tRNA ligase (Mycobacterium tuberculosis (strain ATCC 25618 / H37Rv), UniProt P9WFV1).
T1 sequence (P9WFV1 whole entry): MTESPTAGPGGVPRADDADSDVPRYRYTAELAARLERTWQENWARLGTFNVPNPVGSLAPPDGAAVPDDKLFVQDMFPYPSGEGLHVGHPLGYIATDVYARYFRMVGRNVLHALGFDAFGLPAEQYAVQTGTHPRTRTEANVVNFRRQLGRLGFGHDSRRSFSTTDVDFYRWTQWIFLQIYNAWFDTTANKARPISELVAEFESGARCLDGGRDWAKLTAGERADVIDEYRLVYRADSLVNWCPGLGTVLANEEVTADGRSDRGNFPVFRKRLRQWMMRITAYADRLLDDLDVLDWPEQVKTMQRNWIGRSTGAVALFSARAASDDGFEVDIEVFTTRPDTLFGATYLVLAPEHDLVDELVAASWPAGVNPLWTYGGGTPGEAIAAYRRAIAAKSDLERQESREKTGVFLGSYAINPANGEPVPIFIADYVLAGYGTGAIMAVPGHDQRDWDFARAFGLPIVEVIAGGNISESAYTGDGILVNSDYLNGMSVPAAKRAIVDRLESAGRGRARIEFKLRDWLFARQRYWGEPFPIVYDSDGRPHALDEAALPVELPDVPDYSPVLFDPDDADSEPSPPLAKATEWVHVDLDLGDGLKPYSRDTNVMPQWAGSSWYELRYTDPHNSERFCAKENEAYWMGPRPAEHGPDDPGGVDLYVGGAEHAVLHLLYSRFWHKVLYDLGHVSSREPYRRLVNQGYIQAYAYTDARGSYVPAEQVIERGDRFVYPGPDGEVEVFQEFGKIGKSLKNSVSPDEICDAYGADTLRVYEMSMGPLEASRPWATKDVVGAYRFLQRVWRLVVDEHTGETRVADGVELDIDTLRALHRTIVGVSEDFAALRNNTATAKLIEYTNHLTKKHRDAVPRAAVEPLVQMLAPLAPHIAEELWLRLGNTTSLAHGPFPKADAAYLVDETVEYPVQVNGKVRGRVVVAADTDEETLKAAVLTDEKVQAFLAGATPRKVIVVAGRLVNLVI
In words: Inhibition of Mycobacterium tuberculosis LeuRS expressed in Escherichia coli Rosetta (DE3) cells.

The test system of test [4] is Mycobacterium tuberculosis. In words: Antimycobacterial activity against Mycobacterium tuberculosis H37Rv expressing LeuRS. It counts as functional.
Test [5] is described as follows: Inhibition of human cytoplasmic LeuRS.
Test [6] deals with Mycobacterium tuberculosis. The experiment in a line: Antimycobacterial activity against Mycobacterium tuberculosis H37Ra after 7 to 8 days by MABA assay. It counts as functional.
In test [7] the test system is Mycobacterium tuberculosis. In words: Antimycobacterial activity against Mycobacterium tuberculosis expressing Rv1258c efflux pump. It counts as functional.
The test system of test [8] is Mycobacterium avium. In words: Antimycobacterial activity against Mycobacterium avium 33 expressing MraY. The format is functional.
Test [9] has as its system Mycobacterium tuberculosis. In words: Antimycobacterial activity against Mycobacterium tuberculosis clinical isolates. The format is functional.
For test [10], the system named is Mycobacterium tuberculosis. The experiment in a line: Antimycobacterial activity against Mycobacterium tuberculosis expressing WecA. It counts as functional.
Test [11] has as its system Mycobacterium avium. The experiment in a line: Antimycobacterial activity against Mycobacterium avium infected in mouse assessed as reduction in mycolic acids synthesis. The format is functional.
The subject of test [12] is Mycolicibacterium smegmatis. The experiment in a line: Antimycobacterial activity against Mycobacterium smegmatis. It counts as functional.
Test [13] has as its system Mycobacterium tuberculosis. The experiment in a line: Antimycobacterial activity against Mycobacterium tuberculosis expressing DprE1. The format is functional.

As for `c1ccc(-c2c[nH]cn2)cc1`, the MIC in test [1] is below 10 µM.
For `CCCCS(=O)(=O)Nc1ccc2cnn(C)c2c1`, the MIC in test [2] came to 0.8 µM (≈ 0.214 µg/mL).
For the molecule `COc1ccc(/C(C)=N/NC(N)=S)cc1`, in test [3], the MIC was below 0.05 µg/mL.
On to `NC[C@H]1OB(O)c2c(OCCO)ccc(Cl)c21`, for which the values for the IC50 (at Leucine--tRNA ligase; in test [5]) were 0.216 µM and 140 µM, respectively. This molecule also came in with a minimal inhibitory concentration (MIC) in [4] of 0.08 µM (≈ 0.0206 µg/mL).
On to `NC(=O)c1sc(N2CCOCC2)cc1OCCc1ccc(OC(F)(F)F)cc1`, for which the MIC in test [1] came out at 0.24 µM.
In turn, `CCCCCCCCCCNC(CC(=O)OCC)[C@H]1O[C@@H]2OC(C)(C)O[C@@H]2C1OC` (some centres not stated) displayed an MIC in test [6] of 3.12 µg/mL (≈ 7.26 µM).
`CN[C@H]1[C@@H](O)[C@@H](NC)CC2O[C@@H]3O[C@H](C)C[C@@H](NC(=O)Cc4ccc(O)cn4)[C@]3(O)C[C@@H]21` (some centres not stated) returned an MIC in test [7] of 1.6 µg/mL (≈ 3.55 µM).
Still for that read-out and setting: under `CN[C@H]1[C@@H](O)[C@@H](NC)CC2O[C@@H]3O[C@H](C)C[C@@H](NC(=O)Cc4ccc(Cl)cn4)[C@]3(O)C[C@@H]21` (some centres not stated) stands 0.8 µg/mL (≈ 1.71 µM).
Regarding `CO[C@H]1[C@@H](O)[C@H](n2ccc(=O)[nH]c2=O)O[C@@H]1[C@@H](O[C@H]1OC(C(=O)NC2CCC[C@@H](C)NC2=O)=C[C@H](O)[C@@H]1O)C(N)=O` (some centres not stated), in the test with Mycobacterium avium [8], inhibition of growth (MIC) required 1 µg/mL (≈ 1.71 µM).
As to `Cc1ccc(OCCCCCCn2ccnc2)c(C)c1`, the MIC in test [1] was determined as 4.8 µg/mL.
In test [9], `CC(=O)NC[C@H]1CN(c2cc(F)c(C3=CCN(C(=O)[C@@H](O)CO)CC3)c(F)c2)C(=O)O1` returned an MIC of 0.25 to 1 µg/mL (≈ 0.569 to 2.28 µM).
`CCCCc1ccc(NC(=O)C2=CCN(C)C(C(O[C@@H]3O[C@H](CN)[C@@H](O)[C@H]3O)[C@H]3OC(n4ccc(=O)[nH]c4=O)[C@H](O)[C@@H]3O)C(=O)N2C)cc1` (some centres not stated): it took 1.56 µg/mL (≈ 2.27 µM) to inhibit growth in test [10] (MIC).
In [1], `Cc1c(C(=O)C2CC2)[n+]([O-])c2cc(Cl)c(Cl)cc2[n+]1[O-]` showed an MIC of 1.2 µg/mL.
Still for that read-out and setting: under `Cc1nn2c(O)cc(-c3ncccn3)nc2c1-c1ccc(Cl)cc1` stands 1.1 µg/mL; under `O=[N+]([O-])c1ccc(/C=N/Nc2nc(Nc3ccccc3)nc(N3CCOCC3)n2)o1`, 0.63 µM.
Same read-out and setting: under `O=[N+]([O-])c1ccc(/C=N/Nc2nc(Nc3ccccc3)nc(Nc3ccccc3)n2)o1` stands 0.078 µM; under `Cc1ccc(C(=O)Nc2ccc([N+](=O)[O-])cc2)s1`, 0.5 µg/mL.
Take `CCCCCCCCc1nc2cc(C)c(C)cc2[nH]1`: the MIC90 in test [1] worked out at 0.75 µM.
In the case of `CC(=O)Nc1ccc(/C=N/NC(N)=S)cc1` [AMITHIOZONE], the MIC in the test on Mycobacterium avium [11] amounted to 0.1 µg/mL (≈ 0.423 µM).
In test [12], `COc1nc2ccc(Br)cc2cc1[C@@H](c1ccccc1)[C@@](O)(CCN(C)C)c1cccc2ccccc12` [BEDAQUILINE] showed an MIC99 of 0.03 µg/mL (≈ 0.054 µM).
Regarding `C[C@H]1COC2(CCN(c3nc(=O)c4cc(C(F)(F)F)cc([N+](=O)[O-])c4s3)CC2)O1` [BTZ-043], the MIC in [13] amounted to 0.001 µg/mL (≈ 0.00232 µM).
On to `C[C@]1(COc2ccc(N3CCC(Oc4ccc(OC(F)(F)F)cc4)CC3)cc2)Cn2cc([N+](=O)[O-])nc2O1` [DELAMANID], for which the MIC in test [1] amounted to 0.012 µg/mL.
For `NC(=S)N/N=C/c1cccnc1` [NICOTHIAZONE], the MIC in [3] was 3.1 µg/mL.
On to `O=[N+]([O-])c1cn2c(n1)OC[C@@H](OCc1ccc(OC(F)(F)F)cc1)C2` [PRETOMANID], for which, in test [1], the MIC90 turned out to be 0.039 µg/mL.
`CC(=O)NC[C@H]1CN(c2ccc(N3CCSCC3)c(F)c2)C(=O)O1` [SUTEZOLID]: the MIC in test [1] was 0.03 to 0.5 µg/mL.
